{
  "source": "paper PMC12274840",
  "about": "(The Journal of Biological Chemistry, 2025)",
  "key": {"[1]": {"system": "E. coli KA797 cells carrying pUK21 with BlaC I105R", "type": "cell-based, Escherichia coli", "settings": "in combination with 100 μg/ml carbenicillin"}, "[2]": {"system": "E. coli KA797 cells carrying pUK21 with NmcA (pelB/Sec)", "assay": "microbe, parasite or virus in culture", "type": "cell-based", "settings": "in combination with 25 μg/ml carbenicillin"}, "[3]": {"system": "E. coli KA797 cells carrying BlaC position 105 library", "type": "cell-based, Escherichia coli", "settings": "for Fi AVG (average fitness): average of replicates"}, "BlaC WT": {"biological_target": "T1, BlaC WT (Mycobacterium tuberculosis, UniProt P9WKD3)", "T1 construct": "correspond to residue numbers 41-307 of BlaC (Uniprot entry P9WKD3-1); His tag with TEV cleavage site (N); made in house; host or cells: E. coli BL21 (DE3) pLysS", "T1 sequence (P9WKD3 41-307)": "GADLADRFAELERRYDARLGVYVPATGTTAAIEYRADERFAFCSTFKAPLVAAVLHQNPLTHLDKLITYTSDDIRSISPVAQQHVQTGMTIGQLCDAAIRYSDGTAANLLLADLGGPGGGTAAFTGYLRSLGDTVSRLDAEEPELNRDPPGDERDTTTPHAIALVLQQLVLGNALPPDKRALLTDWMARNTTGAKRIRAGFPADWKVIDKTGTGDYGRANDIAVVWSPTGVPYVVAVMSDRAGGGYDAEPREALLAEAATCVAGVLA", "type": "biochemical"}, "TEM-1 Y105G": {"biological_target": "TEM-1 Y105G (Escherichia coli, UniProt P62593, Y103G)", "assay": "In vitro inhibition of nitrocefin hydrolysis and simulation of inhibition curves, TEM-1 Y105G", "type": "biochemical", "settings": "clavulanic acid, simulation Eq 2/8"}, "TEM-1 WT": {"biological_target": "TEM-1 WT (Escherichia coli, UniProt P62593)", "type": "biochemical", "parameters": "24 to 286 of TEM-1 (P62593); His tag with TEV cleavage site (N); made in house; host or cells: E. coli BL21 (DE3) pLysS", "settings": "clavulanic acid, TEM-1 WT"}, "[4]": {"system": "E. coli KA797 cells carrying pUK21 with CTX-M-14 Y105G", "type": "cell-based, Escherichia coli", "settings": "in combination with 100 μg/ml carbenicillin"}, "[5]": {"system": "E. coli KA797 cells carrying pUK21 with TEM-1 Y105R", "type": "cell-based, Escherichia coli", "settings": "in combination with 100 μg/ml carbenicillin"}, "[6]": {"system": "E. coli KA797 cells carrying pUK21 with CTX-M-14 Y105R", "type": "cell-based, Escherichia coli", "settings": "in combination with 100 μg/ml carbenicillin"}, "[7]": {"system": "E. coli KA797 cells carrying pUK21 with TEM-1 WT (Sec)", "assay": "microbe, parasite or virus in culture", "type": "cell-based", "settings": "in combination with 100 μg/ml carbenicillin"}, "[8]": {"system": "E. coli KA797 cells carrying pUK21 with BlaC WT (Tat)", "assay": "microbe, parasite or virus in culture", "type": "cell-based", "settings": "in combination with 100 μg/ml carbenicillin"}, "[9]": {"system": "E. coli KA797 cells carrying pUK21 with TEM-1 Y105G", "type": "cell-based, Escherichia coli", "settings": "in combination with 100 μg/ml carbenicillin"}, "[10]": {"system": "E. coli KA797 cells carrying pUK21 with BlaC I105G", "type": "cell-based, Escherichia coli", "settings": "in combination with 100 μg/ml carbenicillin"}, "[11]": {"system": "E. coli KA797 cells carrying CTX-M-14 position 105 library", "type": "cell-based"}, "[12]": {"system": "E. coli KA797 cells carrying pUK21 with KPC-2 (Tat)", "assay": "microbe, parasite or virus in culture", "type": "cell-based", "settings": "in combination with 100 μg/ml carbenicillin"}, "[13]": {"system": "E. coli KA797 cells carrying pUK21 with CTX-M-14 WT (Tat)", "assay": "microbe, parasite or virus in culture", "type": "cell-based", "settings": "in combination with 100 μg/ml carbenicillin"}},
  "note": "Where “and” joins values, the source holds several entries; their conditions need not be identical. Equal values may be shown once. Read-outs that look alike come from different tables or passages of the source.",
  "data": [
    {"compound": "O=C(O)[C@H]1/C(=C/CO)O[C@@H]2CC(=O)N21", "note": "[clavulanic acid]", "values": [
      {"measurement": "MIC of inhibitor", "setting": "[1]", "result": 4, "unit": "µg/mL"},
      {"measurement": "MIC of inhibitor", "setting": "[2]", "result": 2, "unit": "µg/mL"},
      {"measurement": "Significance of average fitness", "setting": "[3]; AA 105 Ala (BlaC I105A)", "result": "+"},
      {"measurement": "Fi AVG (average fitness)", "setting": "[3]; AA 105 Ala (BlaC I105A), relative to WT Ile", "result": 0.441},
      {"measurement": "Significance of average fitness", "setting": "[3]; AA 105 Arg (BlaC I105R)", "result": "+"},
      {"measurement": "Fi AVG (average fitness)", "setting": "[3]; AA 105 Arg (BlaC I105R), relative to WT Ile", "result": 0.649},
      {"measurement": "Fi AVG (average fitness)", "setting": "[3]; AA 105 Asn (BlaC I105N), relative to WT Ile", "result": -0.00565},
      {"measurement": "Fi AVG (average fitness)", "setting": "[3]; AA 105 Asp (BlaC I105D), relative to WT Ile", "result": -0.195},
      {"measurement": "Fi AVG (average fitness)", "setting": "[3]; AA 105 Cys (BlaC I105C), relative to WT Ile", "result": 0.048},
      {"measurement": "Fi AVG (average fitness)", "setting": "[3]; AA 105 Gln (BlaC I105Q), relative to WT Ile", "result": -0.027},
      {"measurement": "Fi AVG (average fitness)", "setting": "[3]; AA 105 Glu (BlaC I105E), relative to WT Ile", "result": -0.066},
      {"measurement": "Significance of average fitness", "setting": "[3]; AA 105 Gly (BlaC I105G)", "result": "+"},
      {"measurement": "Fi AVG (average fitness)", "setting": "[3]; AA 105 Gly (BlaC I105G), relative to WT Ile", "result": 0.325},
      {"measurement": "Fi AVG (average fitness)", "setting": "[3]; AA 105 His (BlaC I105H), relative to WT Ile", "result": 0.091},
      {"measurement": "Fi AVG (average fitness)", "setting": "[3]; AA 105 Ile (BlaC WT, reference)", "result": 0.000},
      {"measurement": "Fi AVG (average fitness)", "setting": "[3]; AA 105 Leu (BlaC I105L), relative to WT Ile", "result": 0.152},
      {"measurement": "Fi AVG (average fitness)", "setting": "[3]; AA 105 Lys (BlaC I105K), relative to WT Ile", "result": 0.212},
      {"measurement": "Fi AVG (average fitness)", "setting": "[3]; AA 105 Met (BlaC I105M), relative to WT Ile", "result": 0.159},
      {"measurement": "Significance of average fitness", "setting": "[3]; AA 105 Phe (BlaC I105F)", "result": "+"},
      {"measurement": "Fi AVG (average fitness)", "setting": "[3]; AA 105 Phe (BlaC I105F), relative to WT Ile", "result": 0.271},
      {"measurement": "Fi AVG (average fitness)", "setting": "[3]; AA 105 Pro (BlaC I105P), relative to WT Ile", "result": 0.200},
      {"measurement": "Significance of average fitness", "setting": "[3]; AA 105 Ser (BlaC I105S)", "result": "+"},
      {"measurement": "Fi AVG (average fitness)", "setting": "[3]; AA 105 Ser (BlaC I105S), relative to WT Ile", "result": 0.440},
      {"measurement": "Significance of average fitness", "setting": "[3]; AA 105 Thr (BlaC I105T)", "result": "+"},
      {"measurement": "Fi AVG (average fitness)", "setting": "[3]; AA 105 Thr (BlaC I105T), relative to WT Ile", "result": 0.421},
      {"measurement": "Fi AVG (average fitness)", "setting": "[3]; AA 105 Trp (BlaC I105W), relative to WT Ile", "result": 0.208},
      {"measurement": "Significance of average fitness", "setting": "[3]; AA 105 Tyr (BlaC I105Y)", "result": "+"},
      {"measurement": "Fi AVG (average fitness)", "setting": "[3]; AA 105 Tyr (BlaC I105Y), relative to WT Ile", "result": 0.298},
      {"measurement": "Fi AVG (average fitness)", "setting": "[3]; AA 105 Val (BlaC I105V), relative to WT Ile", "result": 0.071},
      {"measurement": "WT abs Fi 1", "setting": "[3]; absolute fitness of BlaC WT (Ile 105), replicate 1", "result": -0.077},
      {"measurement": "WT abs Fi 2", "setting": "[3]; absolute fitness of BlaC WT (Ile 105), replicate 2", "result": 0.311},
      {"measurement": "k1", "setting": "BlaC WT", "result": "1e+06", "unit": "M⁻¹ s⁻¹"},
      {"measurement": "k2", "setting": "BlaC WT", "result": "4.5 and 4.5 10^−2 s^−1"},
      {"measurement": "k3", "setting": "BlaC WT", "result": 1.8},
      {"measurement": "k2", "setting": "TEM-1 Y105G", "result": "9.6 10^−2 s^−1"},
      {"measurement": "k3", "setting": "TEM-1 Y105G", "result": "3.1 10^−3 s^−1"},
      {"measurement": "k2", "setting": "TEM-1 WT; simulation Eq 2/8", "result": "8 10^−2 s^−1"},
      {"measurement": "k3", "setting": "TEM-1 WT; simulation Eq 2/8", "result": "1.8 10^−3 s^−1"},
      {"measurement": "k1", "setting": "TEM-1 WT; simulation Eq 8", "result": 900000, "unit": "M⁻¹ s⁻¹"},
      {"measurement": "MIC of inhibitor", "setting": "[4]", "result": 1, "unit": "µg/mL"},
      {"measurement": "MIC of inhibitor", "setting": "[5]", "result": 2, "unit": "µg/mL"},
      {"measurement": "MIC of inhibitor", "setting": "[6]", "result": 1, "unit": "µg/mL"},
      {"measurement": "MIC of inhibitor", "setting": "[7]", "result": 2, "unit": "µg/mL"},
      {"measurement": "MIC of inhibitor", "setting": "[8]", "result": 0.5, "unit": "µg/mL"},
      {"measurement": "MIC of inhibitor", "setting": "[9]", "result": 32, "unit": "µg/mL"},
      {"measurement": "MIC of inhibitor", "setting": "[10]", "result": 1, "unit": "µg/mL"},
      {"measurement": "Significance of average fitness", "setting": "[11]; CTX-M-14 AA 105 Arg", "result": "-"},
      {"measurement": "Significance of average fitness", "setting": "[11]; CTX-M-14 AA 105 Gly", "result": "+"},
      {"measurement": "Significance of average fitness", "setting": "[11]; CTX-M-14 AA 105 Trp", "result": "+"},
      {"measurement": "WT abs Fi 1 (absolute fitness of wild type, Replicate 1)", "setting": "[11]; CTX-M-14 WT (Tyr 105)", "result": -0.544},
      {"measurement": "WT abs Fi 2 (absolute fitness of wild type, Replicate 2)", "setting": "[11]; CTX-M-14 WT (Tyr 105)", "result": -0.635},
      {"measurement": "MIC of inhibitor", "setting": "[12]", "result": 1, "unit": "µg/mL"},
      {"measurement": "MIC of inhibitor", "setting": "[13]", "result": 1, "unit": "µg/mL"}
    ]}
  ]
}
